Test results as given in paper PMC5047629, “Synthesis, Pharmacological Profile and Docking Studies of New Sulfonamides Designed as Phosphodiesterase-4 Inhibitors” (PLoS ONE, 2016).

Key:
PDE4A = molecular target: T1, PDE4A (Homo sapiens, UniProt P27815); experiment: PDE4A inhibition, IMAP fluorescence polarization protocol; type: biochemical; conditions: 1 μM; mean ± SEM, 3 experiments
T1 construct: purchased MDS PHARMA
Experimental: (§1) The enzymatic reactions were carried at room temperature in a 96-well black plate by co-incubating 25 μL of 200 nM FAM-cAMP (R7513), 5 μL of putative inhibitory compounds and 20 μL of the PDE4 isoform dissolved in assay buffer (R7364) for 1 h. All enzymes were obtained from human recombinant sources (MDS PHARMA), whereas the other reagents were purchased from Molecular Devices. […] PDE4 inhibitors were dissolved in dimethyl sulfoxide (DMSO) at a final concentration of 0.1%.
(§2) The inhibitory activities of the new sulfonamide derivatives were evaluated for their selectivity against the four isoforms of human PDE4, i.e. PDE4A, PDE4B, PDE4C, and PDE4D, using an IMAP-FP protocol.

PDE4B = molecular target: T2, PDE4B (Homo sapiens, UniProt Q07343); experiment: PDE4B inhibition, IMAP fluorescence polarization protocol; type: biochemical; conditions: 1 μM, mean ± SEM, 3 experiments; for inhibition at 1 µM: read-out: PDE4B1 inhibition
T2 construct: purchased MDS PHARMA
T2 sequence (Q07343 whole entry): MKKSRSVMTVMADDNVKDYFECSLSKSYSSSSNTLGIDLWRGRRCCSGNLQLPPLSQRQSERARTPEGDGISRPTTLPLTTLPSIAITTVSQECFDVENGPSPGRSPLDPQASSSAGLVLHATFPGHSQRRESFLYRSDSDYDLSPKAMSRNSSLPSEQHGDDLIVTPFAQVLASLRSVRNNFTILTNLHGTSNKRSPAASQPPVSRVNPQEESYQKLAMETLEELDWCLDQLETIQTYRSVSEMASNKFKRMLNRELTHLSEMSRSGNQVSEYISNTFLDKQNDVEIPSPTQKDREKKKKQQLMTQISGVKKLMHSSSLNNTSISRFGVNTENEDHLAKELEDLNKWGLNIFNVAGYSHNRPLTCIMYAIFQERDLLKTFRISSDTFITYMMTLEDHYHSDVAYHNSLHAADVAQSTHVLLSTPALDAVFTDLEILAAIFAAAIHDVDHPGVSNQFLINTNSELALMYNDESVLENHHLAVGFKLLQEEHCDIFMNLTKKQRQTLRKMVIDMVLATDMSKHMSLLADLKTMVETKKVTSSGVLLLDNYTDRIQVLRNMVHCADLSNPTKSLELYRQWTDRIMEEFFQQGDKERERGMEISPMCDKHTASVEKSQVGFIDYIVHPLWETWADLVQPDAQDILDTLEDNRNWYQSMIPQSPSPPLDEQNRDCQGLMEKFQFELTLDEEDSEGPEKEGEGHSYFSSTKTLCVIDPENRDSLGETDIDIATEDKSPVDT
Experimental: as §1, §2

PDE4C = molecular target: T3, PDE4C (Homo sapiens, UniProt Q08493); experiment: PDE4C inhibition, IMAP fluorescence polarization protocol; type: biochemical; conditions: 1 μM; mean ± SEM, 3 experiments
T3 construct: purchased MDS PHARMA
T3 sequence (Q08493 whole entry): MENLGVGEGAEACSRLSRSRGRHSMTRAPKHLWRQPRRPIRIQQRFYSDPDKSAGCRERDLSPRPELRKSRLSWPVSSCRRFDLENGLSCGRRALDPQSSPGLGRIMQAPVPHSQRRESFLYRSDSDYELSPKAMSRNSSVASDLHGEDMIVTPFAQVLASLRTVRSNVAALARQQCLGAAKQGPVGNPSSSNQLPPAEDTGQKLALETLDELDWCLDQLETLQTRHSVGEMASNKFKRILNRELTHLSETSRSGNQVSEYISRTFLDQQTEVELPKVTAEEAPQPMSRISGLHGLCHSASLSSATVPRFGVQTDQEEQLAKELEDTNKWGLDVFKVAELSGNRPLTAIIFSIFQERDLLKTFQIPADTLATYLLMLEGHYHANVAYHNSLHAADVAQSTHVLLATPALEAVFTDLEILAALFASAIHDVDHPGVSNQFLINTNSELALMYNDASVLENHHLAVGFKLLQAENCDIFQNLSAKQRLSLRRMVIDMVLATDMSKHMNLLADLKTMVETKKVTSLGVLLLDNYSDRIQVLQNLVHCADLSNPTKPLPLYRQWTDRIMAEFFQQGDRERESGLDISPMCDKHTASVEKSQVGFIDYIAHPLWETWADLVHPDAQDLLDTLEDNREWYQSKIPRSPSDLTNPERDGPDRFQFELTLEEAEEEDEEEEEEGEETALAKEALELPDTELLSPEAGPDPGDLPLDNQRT
Experimental: as §1, §2

PDE4D = molecular target: T4, PDE4D (Homo sapiens, UniProt Q08499); experiment: PDE4D inhibition, IMAP fluorescence polarization protocol; type: biochemical; conditions: 1 μM, mean ± SEM, 3 experiments; for inhibition at 1 µM: read-out: PDE4D3 inhibition
T4 construct: purchased MDS PHARMA
T4 sequence (Q08499 1-673 isoform Q08499-2): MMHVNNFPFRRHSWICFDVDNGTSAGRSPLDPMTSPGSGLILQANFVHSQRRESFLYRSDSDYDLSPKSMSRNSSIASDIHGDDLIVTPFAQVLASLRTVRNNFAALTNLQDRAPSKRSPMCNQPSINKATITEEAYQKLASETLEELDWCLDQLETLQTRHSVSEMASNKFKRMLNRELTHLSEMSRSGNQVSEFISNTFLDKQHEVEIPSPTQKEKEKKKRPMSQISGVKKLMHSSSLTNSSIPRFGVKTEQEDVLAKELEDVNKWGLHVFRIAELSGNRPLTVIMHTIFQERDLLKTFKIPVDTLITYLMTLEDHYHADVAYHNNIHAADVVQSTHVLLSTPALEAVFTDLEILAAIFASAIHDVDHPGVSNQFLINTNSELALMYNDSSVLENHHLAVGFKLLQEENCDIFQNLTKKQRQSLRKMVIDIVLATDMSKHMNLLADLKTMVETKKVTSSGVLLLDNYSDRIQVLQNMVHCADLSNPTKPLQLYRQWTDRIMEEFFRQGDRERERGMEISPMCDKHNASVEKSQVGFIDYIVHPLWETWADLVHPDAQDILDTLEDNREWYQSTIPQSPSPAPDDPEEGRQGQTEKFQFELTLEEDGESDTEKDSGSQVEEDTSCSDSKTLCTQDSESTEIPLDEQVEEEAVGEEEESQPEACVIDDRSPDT
Experimental: as §1, §2

A/J mice [1] = experiment: Murine model of asthma with 4 weekly OVA provocations (days 14, 21, 28, 35), interventional treatment; type: in vivo; conditions: LASSBio-448 100 mg/Kg oral
Experimental: Sensitization was performed by means of a subcutaneous injection of 50 μg ovalbumin (OVA) (grade V; Sigma-Aldrich, St. Louis, MO) adsorbed to 5 mg of Al(OH)3 in 0.2 mL of sterile 0.9% NaCl (saline) at days 0 and 14. Intranasal OVA provocations (25 μg /25 μL saline) were performed at 19 and 20 days post-sensitization under isofluorane volatile anaesthesia (Cristalia, São Paulo, Brazil). Alternatively, sensitization as described above were done at days 0 and 7, while the OVA provocations were carried out at days 14, 21, 28 and 35 [39]. Negative control groups were represented by sensitized mice in which allergen was replaced by saline as a challenge. Treatments were done orally 1 h before provocations. Test compounds were dissolved in saline containing 0.2% Tween 80. All solutions were freshly prepared immediately before use. Analyses were performed 24 h after the last provocation.
Airflow and transpulmonary pressure were recorded with a Buxco pulmonary mechanics processing system (Buxco Electronics, Sharon, CT), which calculated resistance (cmH2O.s/ml) and dynamic lung compliance (mL/cmH2O) in each breath cycle. Elastance was calculated as the inverse of compliance values. Mice were anesthetized with nembutal (60 mg/kg), and the neuromuscular activity was blocked with bromide pancuronium (1 mg/kg). Animals were allowed to stabilize for 5 min and increasing concentrations of methacholine (3–27 mg/mL) were aerosolized for 5 min each. Baseline pulmonary parameters were assessed with aerosolized phosphate buffer solution (PBS).
The EPO activity present in lung tissue was determined with a colorimetric assay as described by Strath et al. (1985), with minor modifications. Briefly, the lungs were cannulated and perfused with saline/EDTA (20 mM). Then, lung samples were homogenized in buffer solution containing 0.5% HBSS (Hank´s balanced solution, pH 7.4; Sigma Chemical Co.) using a tissue homogenizer (T25 ultra-Tirrax). Samples were centrifuged at 1300 xg for 10 min at 4°C. Red blood cells were removed by hypotonic and hypertonic lysis. The suspended cells were then centrifuged again at 1300 xg for 10 min at 4°C. The pellet was then suspended in a solution of HBSS containing 0.5% of HTAB (hexadecyltrimethylamonium bromide; Sigma Chemical Co.) (pH 7.4). This suspension was subjected to heat shock for lysing the cells in three cycles freeze/thawed. At the end, the supernatants were collected, centrifuged at 12000 rpm for 15 min at 4°C and assayed spectrophotometrically for EPO determination. Fifty μl of the samples were placed, and then 50 μl of the substrate (1.5 mM o-phenylenediamine and 6.6 mM hydrogen peroxide in 0.05 mM Tris-HCl buffer, pH 8.0) was added and, after a 30 min incubation at room temperature, 50 μl of H2SO4 (4M) was added to stop the reaction. The optical density reading was performed on the SpectraMax M5 spectrophotometer (Molecular Devices) at a wavelength of 492 nm.
Right lungs tissue samples from saline- and OVA-exposed mice were homogenized in PBS containing 0.05% Triton X-100 and a protease inhibitor cocktail (Complete®, Hoffmann-La Roche Ltd, Basel, Switzerland). After centrifugation at 13000xg for 10 min and 4°C, the levels of IL-13, IL-5, IL-4 and eotaxin-2 were quantified in the supernatant, using commercially available ELISA kits (DuoSet; R&D Systems, Minneapolis, MN, USA). The results were expressed as picograms of cytokine per right lung.

A/J mice [2] = experiment: Duration of xylazine/ketamine anesthesia (behavioral correlate of emesis); type: in vivo
Experimental: This assessment was carried out as previously reported. […] The animals were placed in dorsal position and their spontaneous return to the prone position was used as an endpoint to determine anesthesia duration.

[3] = rolipram 10 mg/Kg oral, right lung, 24 h after last challenge, vs vehicle, Fig 8

T1 sequence (P27815 1-647 isoform P27815-4): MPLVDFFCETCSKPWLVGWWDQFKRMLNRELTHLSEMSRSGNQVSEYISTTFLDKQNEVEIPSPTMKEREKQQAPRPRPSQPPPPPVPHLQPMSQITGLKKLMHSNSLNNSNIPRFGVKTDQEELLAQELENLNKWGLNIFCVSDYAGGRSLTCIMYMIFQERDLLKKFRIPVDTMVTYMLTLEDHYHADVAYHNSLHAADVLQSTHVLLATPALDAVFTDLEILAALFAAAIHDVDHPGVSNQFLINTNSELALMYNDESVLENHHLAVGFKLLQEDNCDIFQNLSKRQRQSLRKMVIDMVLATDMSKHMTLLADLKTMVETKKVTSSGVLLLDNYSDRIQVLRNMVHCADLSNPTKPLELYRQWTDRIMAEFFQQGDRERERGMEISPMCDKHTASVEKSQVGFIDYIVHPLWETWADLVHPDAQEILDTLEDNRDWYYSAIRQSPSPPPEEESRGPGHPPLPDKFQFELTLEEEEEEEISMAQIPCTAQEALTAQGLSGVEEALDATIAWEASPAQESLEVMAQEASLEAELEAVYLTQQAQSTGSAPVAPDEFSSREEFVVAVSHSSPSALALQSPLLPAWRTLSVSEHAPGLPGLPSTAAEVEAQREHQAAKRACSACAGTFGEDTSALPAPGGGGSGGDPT

PDE4A1A inhibition (PDE4A)	PDE4B1 inhibition (PDE4B)	inhibition at 1 µM (PDE4C) [%]	inhibition at 1 µM (PDE4D) [%]	melting point [°C]	PDE4D3 inhibition (PDE4D)	Structure (SMILES)	also measured
Inactive	Inactive	7.6 ± 1.1	23.6 ± 2.2	–	–	COc1ccc(CCN(C2CCCC2)S(=O)(=O)c2cc3c(cc2C)OCO3)cc1OC [6e (LASSBio-962), N-(3,4-dimethoxyphenethyl)-N-cyclopentyl-6-methylbenzo[d][1, 3]dioxole-5-sulfonamide]	–
Inactive	Inactive	2 ± 0.8	21.6 ± 4.5	119 to 121	–	COc1ccc(CCN(Cc2ccccc2)S(=O)(=O)c2cc3c(cc2C)OCO3)cc1OC [6c (LASSBio-960), N-(3,4-dimethoxyphenethyl)-N-benzyl-6-methylbenzo[d][1, 3]dioxole-5-sulfonamide]	–
Inactive	Inactive	4.1	37.4 ± 3.9	67 to 68	only a marginal activity	COc1ccc(CCN(C)S(=O)(=O)c2ccccc2)cc1OC [6g (LASSBio-982), N-(3,4-dimethoxyphenethyl)-N-methylbenzenesulfonamide]	–
Inactive	Inactive	5.6 ± 1	42.4 ± 3.5	92 to 94	only a marginal activity	COc1ccc(CCN(C)S(=O)(=O)c2cc3c(cc2C)OCO3)cc1OC [6b (LASSBio-959), N-(3,4-dimethoxyphenethyl)-N-6-dimethylbenzo[d][1, 3]dioxole-5-sulfonamide]	–
Inactive	Inactive	6.3 ± 4.1	40.4 ± 4.5	74 to 76	only a marginal activity	C=CCN(CCc1ccc(OC)c(OC)c1)S(=O)(=O)c1cc2c(cc1C)OCO2 [6d (LASSBio-961), N-(3,4-dimethoxyphenethyl)-N-allyl-6-methylbenzo[d][1, 3]dioxole-5-sulfonamide]	–
Inactive	–	16.3 ± 1	62.9 ± 3.8	73 to 74	only a marginal activity	COc1ccc(CCNS(C)(=O)=O)cc1OC [6j (LASSBio-985), N-(3,4-dimethoxyphenethyl)methanesulfonamide]	inhibition at 1 µM (PDE4B): 12.6 ± 2.1%

The remaining lines, values behind:

Structure (SMILES)	PDE4A1A inhibition (PDE4A)	PDE4B1 inhibition (PDE4B)	inhibition at 1 µM (PDE4C) [%]	inhibition at 1 µM (PDE4D) [%]	melting point [°C]	PDE4D3 inhibition (PDE4D)	also measured
COc1ccc(CCN(Cc2ccccc2)S(=O)(=O)c2ccccc2)cc1OC [6h (LASSBio-984), N-(3,4-dimethoxyphenethyl)-N-benzylbenzenesulfonamide]	Inactive	–	9.8 ± 1.7	14.3 ± 5.4	82 to 84	–	inhibition at 1 µM (PDE4B): 5 ± 0.6%
C=CCN(CCc1ccc(OC)c(OC)c1)S(=O)(=O)c1ccccc1 [6i (LASSBio-983), N-(3,4-dimethoxyphenethyl)-N-allylbenzenesulfonamide]	Inactive	Inactive	9.7 ± 0.8	67.6 ± 2.6	64 to 65	only a marginal activity	–
COc1ccc(C2CNC(=O)C2)cc1OC1CCCC1 (stereo not shown) [1 (Rolipram), rolipram, reference compound]	–	–	–	–	–	–	airway hyper-reactivity to methacholine, airway resistance (A/J mice [1]; rolipram 10 mg/Kg oral, Fig 7A): equally effective in inhibiting; airway hyper-reactivity to methacholine, lung elastance (A/J mice [1]; rolipram 10 mg/Kg oral, Fig 7B): equally effective in inhibiting; IL-4 level in lung tissue (A/J mice [1]; [3]): reduction in the levels; IL-5 level in lung tissue (A/J mice [1]; [3]): reduction in the levels; IL-13 level in lung tissue (A/J mice [1]; [3]): reduction in the levels; eotaxin-2 level in lung tissue (A/J mice [1]; [3]): reduction in the levels; allergen-induced eosinophil accumulation in the lung tissue (eosinophil peroxidase) (A/J mice [1]; rolipram 10 mg/kg oral, at third and fourth weeks of challenge, Fig 5): impair the progress; reduction of sleep time (duration of xylazine/ketamine anesthesia) (A/J mice [2]; 3.5 μmol/Kg oral): 30%; reduction of sleep time (duration of xylazine/ketamine anesthesia) (A/J mice [2]; 11 μmol/Kg oral): 38.5%; reduction of sleep time (duration of xylazine/ketamine anesthesia) (A/J mice [2]; 36 μmol/Kg oral): 40.8%
Cc1cc2c(cc1S(=O)(=O)NCCc1ccccc1)OCO2 [5 (LASSBio-964), 6-methyl-N-phenethylbenzo[d][1, 3]dioxole-5-sulfonamide]	Inactive	Inactive	3.9 ± 2.9	33.5 ± 4.5	88 to 89	only a marginal activity	–
COc1ccc(CCNS(=O)(=O)c2ccccc2)cc1OC [6f (LASSBio-965), N-(3,4-dimethoxyphenethyl)benzenesulfonamide]	Inactive	Inactive	9.7 ± 3.3	19.3 ± 4	86 to 88	–	–
COc1ccc(CCN(C)S(C)(=O)=O)cc1OC [6k (LASSBio-1271), N-(3,4-dimethoxyphenethyl)-N-methylmethanesulfonamide]	Inactive	Inactive	–	–	48 to 49	Inactive	PDE4C inhibition (PDE4C): Inactive
